Measured values reported in US9156811B2 (priority 2008, dated 2015).
Read-outs that look alike come from different tables or passages of the source.

Columns and labels:
[1] = system: Trypanosome (T. brucei brucei); assay: In-vitro antitrypanosomal efficacy assay (cell growth, resazurin); assay type: cell-based
Method: To column 12, 200 μl media was added to provide a no cells control. Plates were then incubated at 37° C. in an atmosphere of 5% CO2 for 69 hours, before the addition of 20 μl of 500 μM rezasurin solution, and a further incubation period of 4 hours. […] Concentration effect curves were fitted using non-linear regression using XLFit 4.2 and EC50 values determined.

[2] = CNS penetration: drug concentration in blood and brain after i.v. dosing; assay type: in vivo; conditions: iv, female NMRI mouse, t = 5 min; for Kp at 5 min: brain / whole blood; for concentration at 5 min: average of three animals
Method: Assessment of the CNS penetration of NMT inhibitors was determined in the female NMRI mouse following i.v. dosing (n=3 per dose group, concentration measured after t=5 min).

human NMT-1 = human NMT-1 (Homo sapiens (Human), UniProt P30419); assay: NMT enzyme inhibition scintillation proximity assay, human NMT-1; assay type: biochemical; conditions: Human NMT-1; value in parentheses; read-out: IC50 (μM) NMT Enzyme (HuNMT-1)
Chain of human NMT-1 (P30419 whole entry): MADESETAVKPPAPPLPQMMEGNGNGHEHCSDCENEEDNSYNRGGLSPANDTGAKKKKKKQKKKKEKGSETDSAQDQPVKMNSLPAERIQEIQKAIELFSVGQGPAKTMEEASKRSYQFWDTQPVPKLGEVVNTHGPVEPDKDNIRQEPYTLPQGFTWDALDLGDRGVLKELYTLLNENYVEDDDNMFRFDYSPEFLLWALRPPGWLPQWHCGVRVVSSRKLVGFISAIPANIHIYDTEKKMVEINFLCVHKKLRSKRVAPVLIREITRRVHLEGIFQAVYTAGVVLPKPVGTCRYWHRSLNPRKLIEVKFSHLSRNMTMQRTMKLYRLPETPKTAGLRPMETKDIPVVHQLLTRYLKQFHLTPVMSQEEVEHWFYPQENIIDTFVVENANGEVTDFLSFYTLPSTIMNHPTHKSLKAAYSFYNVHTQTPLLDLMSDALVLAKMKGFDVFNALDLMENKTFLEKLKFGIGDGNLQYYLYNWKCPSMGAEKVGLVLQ

[3] = biological target: T. brucei N-myristoyl transferase (Trypanosoma brucei brucei (strain 927/4 GUTat10.1), UniProt Q388H8); assay: biochemical; assay type: biochemical; conditions: read-out: IC50 (μM) NMT Enzyme (T. brucei NMT)
Chain of T. brucei N-myristoyl transferase (Q388H8 1-446): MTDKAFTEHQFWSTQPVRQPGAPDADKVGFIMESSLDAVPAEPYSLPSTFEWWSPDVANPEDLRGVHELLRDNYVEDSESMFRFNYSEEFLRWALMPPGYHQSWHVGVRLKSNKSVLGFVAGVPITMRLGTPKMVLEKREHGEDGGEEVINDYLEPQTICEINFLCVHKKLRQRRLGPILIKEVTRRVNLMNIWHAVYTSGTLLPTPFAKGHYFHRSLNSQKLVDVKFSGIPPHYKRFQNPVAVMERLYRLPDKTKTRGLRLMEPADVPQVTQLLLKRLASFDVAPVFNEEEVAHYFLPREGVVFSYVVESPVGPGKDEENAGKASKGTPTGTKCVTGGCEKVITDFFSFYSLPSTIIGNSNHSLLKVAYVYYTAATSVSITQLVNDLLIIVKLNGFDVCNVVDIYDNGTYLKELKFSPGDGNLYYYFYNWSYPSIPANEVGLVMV

[4] = biological target: L. major N-myristoyl transferase (Leishmania major, UniProt Q4Q5S8); assay type: biochemical; conditions: Leishmania major NMT; value in parentheses; read-out: IC50 (μM) NMT Enzyme (LmNMT)
Chain of L. major N-myristoyl transferase (Q4Q5S8 1-421): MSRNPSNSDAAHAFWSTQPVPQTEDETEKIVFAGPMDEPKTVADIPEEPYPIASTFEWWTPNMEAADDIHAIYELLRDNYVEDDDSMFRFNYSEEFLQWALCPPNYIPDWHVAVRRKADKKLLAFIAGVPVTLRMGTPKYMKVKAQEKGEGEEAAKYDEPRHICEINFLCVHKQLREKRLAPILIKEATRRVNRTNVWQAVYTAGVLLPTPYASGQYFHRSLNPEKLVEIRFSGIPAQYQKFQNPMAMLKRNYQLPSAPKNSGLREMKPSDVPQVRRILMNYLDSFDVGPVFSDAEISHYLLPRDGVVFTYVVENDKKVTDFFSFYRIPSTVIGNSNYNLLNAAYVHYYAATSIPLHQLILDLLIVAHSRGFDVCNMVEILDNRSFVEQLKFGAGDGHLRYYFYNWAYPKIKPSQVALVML

[5] = T. brucei brucei, blood stream form, variant 221
[6] = T. brucei NMT, value without parentheses

Row | Structure (SMILES) | ED50 (μM) T. brucei [1, 5] [µM] | IC50 (human NMT-1) [µM] | IC50 [3, 6] [µM] | IC50 [4] [µM] | other results
1 | Cc1c(N[S+](=O)([O-])c2ccc(-c3cccc(CN(C)C)c3)cc2)c(CC(C)C)nn1C [DDD99742] | – | – | – | – | ED50 (μM) T. brucei ([1]; T. brucei cell growth): 0.019 µM; Kp at 5 min ([2]; single i.v. dose 2.0 mg/kg): 0.66; concentration at 5 min ([2]; brain, single i.v. dose 2.0 mg/kg, read-out: Conc (ng/ml in brain)): 422 ng/mL; concentration at 5 min ([2]; whole blood, single i.v. dose 2.0 mg/kg, read-out: Conc (ng/ml in blood)): 642 ng/mL
2 | Cc1c(NS(=O)(=O)c2ccc(CCCC3CCN(C)CC3)cc2)c(CC(C)C)nn1C [DDD99837, N-(3-isobutyl-1,5-dimethyl-1H-pyrazol-4-yl)-4-(3-(1-methylpiperidin-4-yl)propyl)benzenesulfonamide] | 0.036 | – | – | – | Kp at 5 min ([2]; single i.v. dose 3.0 mg/kg): 0.26; concentration at 5 min ([2]; brain, single i.v. dose 3.0 mg/kg, read-out: Conc (ng/ml in brain)): 99 ng/mL; concentration at 5 min ([2]; whole blood, single i.v. dose 3.0 mg/kg, read-out: Conc (ng/ml in blood)): 388 ng/mL
3 | Cc1c(N[S+](=O)([O-])c2ccc(-c3cccc(CNC4CCCC4)c3)cc2)c(CC(C)C)nn1C [DDD100146] | >1 | 2.3 | 0.36 | – | –
4 | Cc1nn(C)c(C)c1N(CC(F)F)[S+](=O)([O-])c1c(Cl)cc(Br)cc1Cl [DDD100147] | >1 | > 10 | 3.2 | – | –
5 | Cc1nn(C)c(C)c1N(CC(F)(F)F)[S+](=O)([O-])C1=C(Cl)C=C(CCCN2CCCNCC2)CC1Cl (centres unmarked) [DDD100148] | 0.018 | 0.21 | 0.008 | – | –
6 | Cc1nn(C)c(C)c1N(CC(F)(F)F)[S+](=O)([O-])c1c(Cl)cc(CCCN2CCN(C)CC2)cc1Cl [DDD100149] | 0.132 | 2.4 | 0.014 | – | –
7 | Cc1c(N[S+](=O)([O-])c2ccc(-c3cccc(CNCc4ccccc4)c3)cc2)c(CC(C)C)nn1C [DDD100150] | >1 | 4 | 1.3 | – | –
8 | Cc1nn(C)c(C)c1N(C(F)F)[S+](=O)([O-])c1c(Cl)cc(CCCCCCn2ccnc2)cc1Cl [DDD100156] | 0.148 | 1.1 | – | 0.048 | IC50 [3]: 0.016 µM
9 | Cc1nn(C)c(C)c1N(CC(F)F)[S+](=O)([O-])c1c(Cl)cc(CCCN2CCN(C)CC2)cc1Cl [DDD100163] | 0.125 | 1.7 | 0.014 | – | –
10 | Cc1nn(C)c(C)c1N(C(F)F)[S+](=O)([O-])c1c(Cl)cc(CCCCCCn2ccnc2C(C)C)cc1Cl [DDD100791] | 0.344 | 2.1 | – | 0.044 | IC50 [3]: 0.21 µM
11 | Cc1c(N[S+](=O)([O-])c2ccc(-c3cccc(CNCc4cccnc4)c3)cc2)c(CC(C)C)nn1C [DDD100793] | 0.54 | – | 0.026 | 1.4 | –
12 | Cc1c(N[S+](=O)([O-])c2ccc(-c3cccc(CN(C)Cc4cccnc4)c3)cc2)c(CC(C)C)nn1C [DDD100796] | >1 | > 1 | 0.86 | > 1 | –
13 | Cc1c(N[S+](=O)([O-])c2ccc(-c3cccc(CNC(C)C)c3)cc2)c(CC(C)C)nn1C [DDD100799] | 0.293 | – | 0.02 | 0.47 | –
14 | Cc1c(N[S+](=O)([O-])c2ccc(-c3ccc4c(c3)CNCC4)cc2)c(CC(C)C)nn1C [DDD100801] | 0.014 | – | 0.004 | 0.011 | –
15 | Cc1c(N[S+](=O)([O-])c2ccc(-c3cccc(CN4CCCC4C)c3)cc2)c(CC(C)C)nn1C (centres unmarked) [DDD100804] | 0.035 | – | 0.006 | 0.077 | –
16 | Cc1c(N[S+](=O)([O-])c2ccc(-c3ccc(F)c(CN4CCCC4)c3)cc2)c(CC(C)C)nn1C [DDD100806] | 0.033 | – | 0.004 | 0.224 | –
17 | Cc1c(N[S+](=O)([O-])c2ccc(-c3ccccc3CN(C)C)cc2)c(CC(C)C)nn1C [DDD100862] | >1 | – | 0.358 | > 1 | –
18 | Cc1c(N[S+](=O)([O-])c2ccc(-c3cccc(C(C)(C)N(C)C)c3)cc2)c(CC(C)C)nn1C [DDD100863] | 0.015 | – | 0.006 | 0.091 | –

Row | Structure (SMILES) | ED50 (μM) T. brucei [1, 5] [µM] | IC50 (human NMT-1) [µM] | IC50 [3, 6] [µM] | IC50 [4] [µM] | other results
19 | Cc1c(N[S+](=O)([O-])c2ccc(-c3ccc(CN(C)C)cc3)cc2)c(CC(C)C)nn1C [DDD100865] | 7.3 | – | 0.097 | 1.9 | –
20 | CCCCc1nn(C)c(C)c1N[S+](=O)([O-])c1ccc(-c2cccc(CN(C)C)c2)cc1 [DDD100866] | 3.2 | – | 0.01 | 0.054 | –
21 | CCCc1nn(C)c(C)c1N[S+](=O)([O-])c1ccc(-c2cccc(CN(C)C)c2)cc1 [DDD100867] | 0.048 | – | 0.006 | 0.074 | –
22 | Cc1c(N[S+](=O)([O-])c2ccc(-c3cccc(CNCCc4cccnc4)c3)cc2)c(CC(C)C)nn1C [DDD100869] | 5.7 | – | 0.004 | 0.019 | –
23 | CCCc1nn(C)c(C)c1N[S+](=O)([O-])c1ccc(Br)cc1 [DDD100871] | 51.0 | > 1 | 7.95 | > 1 | –
24 | Cc1nn(C)c(C)c1N[S+](=O)([O-])c1ccc(-c2cccc(-c3cn(C)cn3)c2)cc1 [DDD100873] | >1 | > 1 | 13.8 | > 1 | –
25 | Cc1nn(C)c(C)c1N[S+](=O)([O-])c1ccc(-c2cccc(-c3nccn3C)c2)cc1 [DDD100874] | >1 | > 1 | 0.74 | > 1 | –
26 | CCCCc1nn(C)c(C)c1N[S+](=O)([O-])c1ccc(Br)cc1 [DDD100875] | 20.5 | > 1 | 2.68 | > 1 | –
27 | Cc1c(N[S+](=O)([O-])c2ccc(-c3ccc4c(c3)CN(C)CC4)cc2)c(CC(C)C)nn1C [DDD100876] | 0.014 | – | 0.006 | 0.059 | –
28 | Cc1nn(C)c(C)c1N[S+](=O)([O-])c1ccc(-c2cccc(-c3nccn3C)c2)cc1 [DDD100878] | >1 | 2.4 | 0.262 | 0.906 | –
29 | Cc1nn(C)c(C)c1N[S+](=O)([O-])c1ccc(-c2cccc(-c3c[nH]cn3)c2)cc1 [DDD100879] | >1 | 2.6 | 0.803 | 1.59 | –
30 | Cc1c(N[S+](=O)([O-])c2ccc(Br)cc2)c(CCc2ccccc2)nn1C [DDD100880] | 21.4 | > 1 | > 1 | > 1 | –
31 | Cc1c(N[S+](=O)([O-])c2ccc(CCCC3CCN(C)CC3)cc2)c(Cc2ccccc2)nn1C [DDD100881] | 0.234 | – | 0.02 | 0.778 | –
32 | Cc1c(N[S+](=O)([O-])c2ccc(-c3cccc(CNCCc4ccccn4)c3)cc2)c(CC(C)C)nn1C [DDD100882] | 2.45 | – | 0.305 | > 1 | –
33 | Cc1c(N[S+](=O)([O-])c2ccc(CCCCC3CCN(C)CC3)cc2)c(Cc2ccccc2)nn1C [DDD100883] | 0.427 | > 1 | 0.023 | 0.672 | –
34 | Cc1nn(C)c(C)c1N[S+](=O)([O-])c1ccc(-c2cccc(-c3ncc[nH]3)c2)cc1 [DDD100884] | >1 | > 1 | 1.08 | > 1 | –
35 | Cc1c(N[S+](=O)([O-])c2ccc(-c3cccc(CN(C)C)c3)cc2)c(CCc2ccccc2)nn1C [DDD100885] | 9.72 | – | 0.032 | 0.211 | –
